Measurements from patent US20230083885A1, “MODULATORS OF INTEGRATED STRESS RESPONSE PATHWAY” (Praxis Biotech LLC, priority 2021, published 2023).
pIC50: −log10 of the molar value. Read-outs that look alike come from different tables or passages of the source.

Columns and labels:
ATF4 = ATF4 expression inhibition assay (ATF4 5'UTR luciferase reporter, thapsigargin-stressed); assay type: cell-based; conditions: Homo sapiens, HEK-293T, read-out: ATF4 inhibition
Protocol: The ATF4 reporter was prepared by fusing the human full length 5′UTR of ATF4 (NCBI Accession No. BC022088.2) upstream of the firefly luciferase coding sequence lacking the initiator methionine. The fused sequence was cloned into pLenti-EF1a-C-Myc-DDK-IRES-Puro cloning vector (Origen #PS100085) using standard methods.
HEK293T cells carrying the ATF4 luciferase reporter were plated on 96-well plates (Nunc) at 10,000 cells per well. Cells were treated two days after seeding with 100 nM thapsigargin (Tg) (Sigma-Aldrich #T9033) in the presence of different concentrations of selected compounds ranging from 0.1 nM to 10 μM. Cells without treatment or cells treated with Tg alone were used as controls. Assay plates containing cells were incubated for 3 hours at 37° C.
Luciferase reactions were performed using Luciferase Assay System (Promega #E1501) as specified by the manufacturer. Luminescence was read with an integration time of 1 s and a gain of 110 using a Cytation-5 multi-mode microplate reader (BioTek).

[1] = test system: Chinese hamster ovary (CHO) cells; assay: Protein synthesis assay (puromycin incorporation, Western blot); assay type: cell-based; conditions: Cricetulus griseus, read-out: % Protein synthesis relative to untreated (1 μM test compound)
Protocol: Chinese hamster ovary (CHO) cells were maintained at 37° C. and 5% CO2 in Dulbecco's Modified Eagle's Media (DMEM) supplemented with 10% fetal bovine serum, 2 mM L-glutamine, 100 U/ml penicillin, and 100 μg/ml streptomycin. After reaching 80% of confluence, cells were detached and seeded on 6 well plates in complete media, allowed to recover overnight and treated for 2 hours with 1 μM of the test compound (to assess protein synthesis levels in unstressed condition), or for 2 hours with 300 nM Tg in the presence of 1 μM of the test compound (to assess the recovery of protein synthesis in a stressed condition). Cells with Tg alone were used as controls.
After the 2 hours treatments, media were replaced by adding 10 μg/ml puromycin (Sigma Aldrich #P8833) in complete media for 30 min. Media were removed and cells were lysed with SDS-PAGE lysis buffer. Lysates were transferred to 1.5 ml tubes and sonicated for 3 min and total protein amount were quantified using BCA Protein Assay Kit (Pierce). Equal amount of protein (30 μg) was loaded on SDS-PAGE gels.
A HRP-conjugated secondary antibody (Rockland) was employed to detect immune-reactive bands using enhanced chemiluminescence (ECL Western Blotting Substrate, Pierce). Quantification of protein bands was done by densitometry using ImageJ software.
The percentage levels were normalized to the media alone condition, which correspond to 100% protein synthesis. […]

[2] = HEK293T cells carrying ATF4 luciferase reporter, 100 nM thapsigargin, 3 hours
[3] = unstressed CHO cells (without Tg), 1 μM test compound, 2 hours, media alone = 100%

SMILES | pIC50 (ATF4; [2]) | activity at 1 µM [1, 3] | pIC50 (ATF4; 3 h) | activity at 1 µM ([1]; CHO, 2 h)
O=C(Nc1ccc2cc(Cl)ccc2n1)[C@H]1CC[C@H](c2nnc(C3CCC(C(F)(F)F)CC3)o2)CC1 (stereo partly drawn) [Compound 29, trans-N-(6-chloroquinolin-2-yl)-4-(5-(4-(trifluoromethyl)cyclohexyl)-1,3,4-oxadiazol-2-yl)cyclohexanecarboxamide] | < 6.00 | 11.5% | – | –
O=C(Nc1ccc2cc(Cl)ccc2n1)[C@H]1CC[C@H](c2nnc([C@H]3CC[C@H](C(F)(F)F)CC3)o2)CC1 [Compound 30, trans-N-(6-chloroquinolin-2-yl)-4-(5-(trans-4-(trifluoromethyl)cyclohexyl)-1,3,4-oxadiazol-2-yl)cyclohexanecarboxamide] | 6.00 to 7.00 | 16.7% | – | –
O=C(Nc1ccc2cc(Cl)ccc2n1)[C@H]1CC[C@H](c2nnc([C@H]3CC[C@@H](C(F)(F)F)CC3)o2)CC1 [Compound 31, trans-N-(6-chloroquinolin-2-yl)-4-(5-(cis-4-(trifluoromethyl)cyclohexyl)-1,3,4-oxadiazol-2-yl)cyclohexanecarboxamide] | < 6.00 | 4.9% | – | –
O=C(Nc1ccc2cc(Cl)ccc2n1)[C@H]1CC[C@H](c2nc(-c3ccc(Cl)cc3)co2)CC1 [Compound 32, trans-4-(4-(4-chlorophenyl)oxazol-2-yl)-N-(6-chloroquinolin-2-yl)cyclohexanecarboxamide] | – | – | < 6.00 | 136%
O=C(Nc1ccc2cc(Cl)ccc2n1)[C@H]1CC[C@H](c2nc(-c3ccc(Cl)cc3)cs2)CC1 [Compound 33, trans-4-(4-(4-chlorophenyl)thiazol-2-yl)-N-(6-chloroquinolin-2-yl)cyclohexanecarboxamide] | – | – | < 6.00 | 11.4%
O=C(COc1ccc(Cl)c(F)c1)N[C@H]1CC[C@H](c2nc(-c3ccc(Cl)cc3)cs2)CC1 [Compound 34, trans-2-(4-chloro-3-fluorophenoxy)-N-(4-(4-(4-chlorophenyl)thiazol-2-yl)cyclohexyl)acetamide] | – | – | > 8.00 | 83.4%
O=C(COc1ccc(Cl)c(F)c1)NN1CCC(c2nnc(-c3ccc(Cl)cc3)o2)CC1 [Compound 35, 2-(4-chloro-3-fluorophenoxy)-N-(4-(5-(4-chlorophenyl)-1,3,4-oxadiazol-2-yl)piperidin-1-yl)acetamide] | > 8.00 | 51.6% | – | –
O=C(COc1ccc(Cl)c(F)c1)N[C@H]1CC[C@@H](c2cnn(-c3ccc(Cl)cc3)c2)CC1 [Compound 36, cis-2-(4-chloro-3-fluorophenoxy)-N-(4-(1-(4-chlorophenyl)-1H-pyrazol-4-yl)cyclohexyl)acetamide] | 6.00 to 7.00 | 6.4% | – | –
O=C(COc1ccc(Cl)c(F)c1)N[C@H]1CC[C@H](c2cnn(-c3ccc(Cl)cc3)c2)CC1 [Compound 37, trans-2-(4-chloro-3-fluorophenoxy)-N-(4-(1-(4-chlorophenyl)-1H-pyrazol-4-yl)cyclohexyl)acetamide] | > 8.00 | 24.3% | – | –
O=C(COc1ccc(Cl)c(F)c1)N[C@H]1CC[C@H](n2cnc(-c3ccc(Cl)cc3)c2)CC1 [Compound 44, trans-2-(4-chloro-3-fluorophenoxy)-N-(4-(4-(4-chlorophenyl)-1H-imidazol-1-yl)cyclohexyl)acetamide] | > 8.00 | 39.5% | – | –
O=C(Nc1ccc2cc(Cl)ccc2n1)[C@H]1CC[C@H](c2nnc(C3CNc4cc(Cl)ccc4O3)o2)CC1 (stereo partly drawn) [Compound 45, trans-4-(5-(6-chloro-3,4-dihydro-2H-benzo[b][1,4]oxazin-2-yl)-1,3,4-oxadiazol-2-yl)-N-(6-chloroquinolin-2-yl)cyclohexanecarboxamide] | 7.00 to 8.00 | 81.8% | – | –
O=C(Nc1ccc2cc(Cl)ccc2n1)[C@H]1CC[C@H](c2nnc(-c3ccc4cc(Cl)ccc4n3)o2)CC1 [Compound 46, trans-N-(6-chloroquinolin-2-yl)-4-(5-(6-chloroquinolin-2-yl)-1,3,4-oxadiazol-2-yl)cyclohexanecarboxamide] | 7.00 to 8.00 | 11.8% | – | –
O=C(NCc1ccc2cc(Cl)ccc2n1)[C@H]1CC[C@H](c2nnc(-c3ccc(Cl)cc3)o2)CC1 [Compound 47, trans-4-(5-(4-chlorophenyl)-1,3,4-oxadiazol-2-yl)-N-((6-chloroquinolin-2-yl)methyl)cyclohexanecarboxamide] | < 6.00 | 2% | – | –
O=C(Nc1ccc2cc(Cl)ccc2n1)[C@H]1CC[C@H](c2nnc([C@H]3C[C@@H](OC(F)(F)F)C3)o2)CC1 [Compound 48, trans-N-(6-chloroquinolin-2-yl)-4-(5-(cis-3-(trifluoromethoxy)cyclobutyl)-1,3,4-oxadiazol-2-yl)cyclohexanecarboxamide] | 7.00 to 8.00 | 22.4% | – | –
O=C(Nc1ccc2cc(Cl)ccc2n1)[C@H]1CC[C@H](c2nnc(Cc3ccc(Cl)cc3)o2)CC1 [Compound 237, trans-4-(5-(4-chlorobenzyl)-1,3,4-oxadiazol-2-yl)-N-(6-chloroquinolin-2-yl)cyclohexanecarboxamide] | 7.00 to 8.00 | 51.3% | – | –
O=C(COc1ccc(Cl)c(F)c1)N[C@H]1CC[C@H](c2nnc(Cc3ccc(Cl)cc3)o2)CC1 [Compound 238, 2-(4-chloro-3-fluorophenoxy)-N-(trans-4-(5-(4-chlorobenzyl)-1,3,4-oxadiazol-2-yl)cyclohexyl)acetamide] | > 8.00 | 74.6% | – | –
O=C(N[C@H]1CC[C@H](c2nnc(Cc3ccc(Cl)cc3)o2)CC1)c1ccc2cc(Cl)ccc2n1 [Compound 239, 6-chloro-N-(trans-4-(5-(4-chlorobenzyl)-1,3,4-oxadiazol-2-yl)cyclohexyl)quinoline-2-carboxamide] | > 8.00 | 197% | – | –
O=C(COc1ccc(Cl)c(F)c1)NN1CCC(c2nnc(COc3ccc(Cl)cc3)o2)CC1 [Compound 240, 2-(4-chloro-3-fluorophenoxy)-N-(4-(5-((4-chlorophenoxy)methyl)-1,3,4-oxadiazol-2-yl)piperidin-1-yl)acetamide] | > 8.00 | 42.3% | – | –
O=C(COc1ccc(Cl)c(F)c1)NN1CCC(c2nnc([C@H]3C[C@@H](OC(F)(F)F)C3)o2)CC1 [Compound 242, 2-(4-chloro-3-fluorophenoxy)-N-(4-(5-(cis-3-(trifluoromethoxy)cyclobutyl)-1,3,4-oxadiazol-2-yl)piperidin-1-yl)acetamide] | > 8.00 | 23% | – | –
O=C(COc1ccc(Cl)c(F)c1)N[C@H]1CC[C@H](c2nnc([C@H]3C[C@@H](C(F)(F)F)C3)o2)CC1 [Compound 243, trans-2-(4-chloro-3-fluorophenoxy)-N-(4-(5-(cis-3-(trifluoromethyl)cyclobutyl)-1,3,4-oxadiazol-2-yl)cyclohexyl)acetamide] | 7.00 to 8.00 | -39.1% | – | –
O=C(COc1ccc(Cl)c(F)c1)N[C@H]1CC[C@H](c2nnc(Cc3ccc(Cl)c(F)c3)o2)CC1 [Compound 244, N-(trans-4-(5-(4-chloro-3-fluorobenzyl)-1,3,4-oxadiazol-2-yl)cyclohexyl)-2-(4-chloro-3-fluorophenoxy)acetamide] | > 8.00 | 94% | – | –
O=C(N[C@H]1CC[C@H](c2nnc(Cc3ccc(Cl)cc3)o2)CC1)c1cc2cc(Cl)ccc2o1 [Compound 247, trans-5-chloro-N-(4-(5-(4-chlorobenzyl)-1,3,4-oxadiazol-2-yl)cyclohexyl)benzofuran-2-carboxamide] | > 8.00 | 278% | – | –
O=C(Nc1ccc2cc(Cl)ccc2n1)[C@H]1CC[C@H](c2cnn(-c3ccc(Cl)cc3)c2)CC1 [Compound 250, trans-4-(1-(4-chlorophenyl)-1H-pyrazol-4-yl)-N-(6-chloroquinolin-2-yl)cyclohexanecarboxamide] | 7.00 to 8.00 | 25% | – | –
